From paper PMC9330389, “Bambus[4,6]urils as Dual Scaffolds for Multivalent Iminosugar Presentation and Ion Transport: Access to Unprecedented Glycosidase-Directed Anion Caging Agents” (Molecules, 2022)

Target: T1, Jack Bean α-mannosidase (Canavalia ensiformis, UniProt C0HJB3)
T1 construct: purchased Sigma Aldrich, St. Louis, MO, USA
T1 sequence (C0HJB3 1-981): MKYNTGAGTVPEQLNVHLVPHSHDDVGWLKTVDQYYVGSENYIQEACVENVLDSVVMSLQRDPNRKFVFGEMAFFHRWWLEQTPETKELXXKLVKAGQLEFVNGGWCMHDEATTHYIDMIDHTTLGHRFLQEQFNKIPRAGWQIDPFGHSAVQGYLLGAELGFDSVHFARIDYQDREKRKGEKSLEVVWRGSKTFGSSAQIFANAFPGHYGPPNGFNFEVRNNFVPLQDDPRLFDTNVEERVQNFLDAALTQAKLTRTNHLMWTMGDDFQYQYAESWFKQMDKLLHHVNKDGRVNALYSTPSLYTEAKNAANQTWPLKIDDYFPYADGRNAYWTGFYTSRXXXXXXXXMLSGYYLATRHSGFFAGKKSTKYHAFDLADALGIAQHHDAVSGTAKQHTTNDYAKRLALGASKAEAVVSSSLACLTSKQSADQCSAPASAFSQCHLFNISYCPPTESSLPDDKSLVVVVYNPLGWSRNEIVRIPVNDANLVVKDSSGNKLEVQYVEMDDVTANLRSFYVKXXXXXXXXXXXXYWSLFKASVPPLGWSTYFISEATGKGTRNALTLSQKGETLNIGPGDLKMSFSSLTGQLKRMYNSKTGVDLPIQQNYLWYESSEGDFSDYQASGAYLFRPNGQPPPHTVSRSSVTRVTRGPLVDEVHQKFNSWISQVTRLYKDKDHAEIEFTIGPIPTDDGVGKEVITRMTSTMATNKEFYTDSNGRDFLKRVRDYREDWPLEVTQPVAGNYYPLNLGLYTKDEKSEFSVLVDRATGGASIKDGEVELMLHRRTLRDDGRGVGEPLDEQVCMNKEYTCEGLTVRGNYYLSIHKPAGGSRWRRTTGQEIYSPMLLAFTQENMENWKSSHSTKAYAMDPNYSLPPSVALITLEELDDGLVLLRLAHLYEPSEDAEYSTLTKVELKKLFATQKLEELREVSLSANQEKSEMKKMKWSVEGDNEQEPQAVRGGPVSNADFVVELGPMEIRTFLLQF
Assay: Inhibition assays on Jack-Bean α-mannosidase (p-nitrophenyl-α-D-mannopyranoside hydrolysis, Dixon and Lineweaver–Burk)
Type: biochemical
Conditions: for Ki: 0.2 M acetate buffer pH 5, 25-27 °C, for mixed inhibitors the first value of the cell (Ki); for rp/n (relative potency per inhitope): n = number of inhitope units; for Rp (relative potency): rp = Ki (monovalent reference)/Ki (neoglycocluster)
Description: p-nitrophenyl-α-D-mannopyranoside and α-mannosidase (EC 3.2.1.24, from Jack Bean) were purchased from Sigma Aldrich, St. Louis, MO, USA. Inhibition constants were determined spectrophotometrically by measuring the residual hydrolytic activities of the α-mannosidase against p-nitrophenyl-α-D-mannopyranoside in the presence and absence of an inhibitor. Each well was filled with a total volume of 100 µL, containing 0.2 M acetate buffer pH 5, inhibitor, substrate and enzyme. All kinetics were performed between 25 °C and 27 °C and started by enzyme addition. After 30–50 min of incubation, the reaction was quenched by addition of 100 µL of 1M Na2CO3. The absorbance of the resulting solution was determined at 405 nm. Ki values were determined in triplicate, using the Dixon and Lineweaver–Burk graphical methods within Microsoft Excel. Stock solutions of inhibitors were prepared with DMSO/buffer for final well DMSO content under 5%. The stability of the enzyme in the presence of the same concentrations of DMSO was controlled and enzyme activity was unaffected.

CCCC[N+](CCCC)(CCCC)CCCC.O=C1N(Cc2cn(CCCCCCCCCN3C[C@H](O)[C@@H](O)[C@H](O)[C@H]3CO)nn2)C2C(N1Cc1cn(CCCCCCCCCN3C[C@H](O)[C@@H](O)[C@H](O)[C@H]3CO)nn1)N1CN3C(=O)N(CN4C(=O)N(CN5C(=O)N(CN6C(=O)N(CN7C(=O)N(CN2C1=O)C1C7N(Cc2cn(CCCCCCCCCN7C[C@H](O)[C@@H](O)[C@H](O)[C@H]7CO)nn2)C(=O)N1Cc1cn(CCCCCCCCCN2C[C@H](O)[C@@H](O)[C@H](O)[C@H]2CO)nn1)C1C6N(Cc2cn(CCCCCCCCCN6C[C@H](O)[C@@H](O)[C@H](O)[C@H]6CO)nn2)C(=O)N1Cc1cn(CCCCCCCCCN2C[C@H](O)[C@@H](O)[C@H](O)[C@H]2CO)nn1)C1C5N(Cc2cn(CCCCCCCCCN5C[C@H](O)[C@@H](O)[C@H](O)[C@H]5CO)nn2)C(=O)N1Cc1cn(CCCCCCCCCN2C[C@H](O)[C@@H](O)[C@H](O)[C@H]2CO)nn1)C1C4N(Cc2cn(CCCCCCCCCN4C[C@H](O)[C@@H](O)[C@H](O)[C@H]4CO)nn2)C(=O)N1Cc1cn(CCCCCCCCCN2C[C@H](O)[C@@H](O)[C@H](O)[C@H]2CO)nn1)C1C3N(Cc2cn(CCCCCCCCCN3C[C@H](O)[C@@H](O)[C@H](O)[C@H]3CO)nn2)C(=O)N1Cc1cn(CCCCCCCCCN2C[C@H](O)[C@@H](O)[C@H](O)[C@H]2CO)nn1.[Br-] (some centres unmarked) [Compound 10, Br^-@(DNJ-C9)12BU[6].TBA^+]
Inhibition Mode: competitive
Ki: 488 nM
rp/n (relative potency per inhitope): 32
Rp (relative potency): 385

O=C1N(Cc2cn(CCCCCCCCCN3C[C@H](O)[C@@H](O)[C@H](O)[C@H]3CO)nn2)C2C(N1Cc1cn(CCCCCCCCCN3C[C@H](O)[C@@H](O)[C@H](O)[C@H]3CO)nn1)N1CN3C(=O)N(CN4C(=O)N(CN5C(=O)N(CN2C1=O)C1C5N(Cc2cn(CCCCCCCCCN5C[C@H](O)[C@@H](O)[C@H](O)[C@H]5CO)nn2)C(=O)N1Cc1cn(CCCCCCCCCN2C[C@H](O)[C@@H](O)[C@H](O)[C@H]2CO)nn1)C1C4N(Cc2cn(CCCCCCCCCN4C[C@H](O)[C@@H](O)[C@H](O)[C@H]4CO)nn2)C(=O)N1Cc1cn(CCCCCCCCCN2C[C@H](O)[C@@H](O)[C@H](O)[C@H]2CO)nn1)C1C3N(Cc2cn(CCCCCCCCCN3C[C@H](O)[C@@H](O)[C@H](O)[C@H]3CO)nn2)C(=O)N1Cc1cn(CCCCCCCCCN2C[C@H](O)[C@@H](O)[C@H](O)[C@H]2CO)nn1 (some centres unmarked) [Compound 4, (DNJ-C9)8BU[4]]
Inhibition Mode: competitive
Ki: 710 nM
rp/n (relative potency per inhitope): 33
Rp (relative potency): 265

O=C1N(Cc2cn(CCCCCCCCCN3C[C@H](O)[C@@H](O)[C@H](O)[C@H]3CO)nn2)C2C(N1Cc1cn(CCCCCCCCCN3C[C@H](O)[C@@H](O)[C@H](O)[C@H]3CO)nn1)N1CN3C(=O)N(CN4C(=O)N(CN5C(=O)N(CN6C(=O)N(CN7C(=O)N(CN2C1=O)C1C7N(Cc2cn(CCCCCCCCCN7C[C@H](O)[C@@H](O)[C@H](O)[C@H]7CO)nn2)C(=O)N1Cc1cn(CCCCCCCCCN2C[C@H](O)[C@@H](O)[C@H](O)[C@H]2CO)nn1)C1C6N(Cc2cn(CCCCCCCCCN6C[C@H](O)[C@@H](O)[C@H](O)[C@H]6CO)nn2)C(=O)N1Cc1cn(CCCCCCCCCN2C[C@H](O)[C@@H](O)[C@H](O)[C@H]2CO)nn1)C1C5N(Cc2cn(CCCCCCCCCN5C[C@H](O)[C@@H](O)[C@H](O)[C@H]5CO)nn2)C(=O)N1Cc1cn(CCCCCCCCCN2C[C@H](O)[C@@H](O)[C@H](O)[C@H]2CO)nn1)C1C4N(Cc2cn(CCCCCCCCCN4C[C@H](O)[C@@H](O)[C@H](O)[C@H]4CO)nn2)C(=O)N1Cc1cn(CCCCCCCCCN2C[C@H](O)[C@@H](O)[C@H](O)[C@H]2CO)nn1)C1C3N(Cc2cn(CCCCCCCCCN3C[C@H](O)[C@@H](O)[C@H](O)[C@H]3CO)nn2)C(=O)N1Cc1cn(CCCCCCCCCN2C[C@H](O)[C@@H](O)[C@H](O)[C@H]2CO)nn1 (some centres unmarked) [Compound 7, (DNJ-C9)12BU[6]]
Inhibition Mode: competitive
Ki: 1060 nM
rp/n (relative potency per inhitope): 15
Rp (relative potency): 177

O=C1N(Cc2cn(CCCCCCN3C[C@H](O)[C@@H](O)[C@H](O)[C@H]3CO)nn2)[C@H]2[C@@H](N1Cc1cn(CCCCCCN3C[C@H](O)[C@@H](O)[C@H](O)[C@H]3CO)nn1)N1CN3C(=O)N(CN4C(=O)N(CN5C(=O)N(CN2C1=O)[C@@H]1[C@H]5N(Cc2cn(CCCCCCN5C[C@H](O)[C@@H](O)[C@H](O)[C@H]5CO)nn2)C(=O)N1Cc1cn(CCCCCCN2C[C@H](O)[C@@H](O)[C@H](O)[C@H]2CO)nn1)[C@H]1[C@@H]4N(Cc2cn(CCCCCCN4C[C@H](O)[C@@H](O)[C@H](O)[C@H]4CO)nn2)C(=O)N1Cc1cn(CCCCCCN2C[C@H](O)[C@@H](O)[C@H](O)[C@H]2CO)nn1)[C@@H]1[C@H]3N(Cc2cn(CCCCCCN3C[C@H](O)[C@@H](O)[C@H](O)[C@H]3CO)nn2)C(=O)N1Cc1cn(CCCCCCN2C[C@H](O)[C@@H](O)[C@H](O)[C@H]2CO)nn1 [Compound 3, (DNJ-C6)8BU[4]]
Inhibition Mode: competitive
Ki: 9700 nM
rp/n (relative potency per inhitope): 4
Rp (relative potency): 33

CCCC[N+](CCCC)(CCCC)CCCC.O=C1N(Cc2cn(CCCCCCN3C[C@H](O)[C@@H](O)[C@H](O)[C@H]3CO)nn2)C2C(N1Cc1cn(CCCCCCN3C[C@H](O)[C@@H](O)[C@H](O)[C@H]3CO)nn1)N1CN3C(=O)N(CN4C(=O)N(CN5C(=O)N(CN6C(=O)N(CN7C(=O)N(CN2C1=O)C1C7N(Cc2cn(CCCCCCN7C[C@H](O)[C@@H](O)[C@H](O)[C@H]7CO)nn2)C(=O)N1Cc1cn(CCCCCCN2C[C@H](O)[C@@H](O)[C@H](O)[C@H]2CO)nn1)C1C6N(Cc2cn(CCCCCCN6C[C@H](O)[C@@H](O)[C@H](O)[C@H]6CO)nn2)C(=O)N1Cc1cn(CCCCCCN2C[C@H](O)[C@@H](O)[C@H](O)[C@H]2CO)nn1)C1C5N(Cc2cn(CCCCCCN5C[C@H](O)[C@@H](O)[C@H](O)[C@H]5CO)nn2)C(=O)N1Cc1cn(CCCCCCN2C[C@H](O)[C@@H](O)[C@H](O)[C@H]2CO)nn1)C1C4N(Cc2cn(CCCCCCN4C[C@H](O)[C@@H](O)[C@H](O)[C@H]4CO)nn2)C(=O)N1Cc1cn(CCCCCCN2C[C@H](O)[C@@H](O)[C@H](O)[C@H]2CO)nn1)C1C3N(Cc2cn(CCCCCCN3C[C@H](O)[C@@H](O)[C@H](O)[C@H]3CO)nn2)C(=O)N1Cc1cn(CCCCCCN2C[C@H](O)[C@@H](O)[C@H](O)[C@H]2CO)nn1.[Br-] (some centres unmarked) [Compound 8, Br^−@(DNJ-C6)12BU[6].TBA^+]
Inhibition Mode: mixed
Ki: 85600 nM
Ki' (mixed inhibition, second value of the cell (Ki' in supplement)): 191000 ± 37000 nM
Rp (relative potency): 3.8
